# Measured values from patent US5235061A, “Fungicidal (1H-1,2,4-triazolyl)disilaalkanes” (priority 1991, dated 1993).
# How the values were obtained:
# Test in all cases: In vitro percent disease control (radii of spore growth on agar)
# Type in all cases: cell-based
# Rhizoctonia solani = details: Rhizoctonia solani, read-out: % controlled, Rhy. so.
# Description: (§1) The compounds of this invention were dissolved respectively in acetone in an amount equal to 10% of the final volume and then in purified water at the concentration of 100 ppm and 50 ppm.
# (§2) Each of the solution was mixed with potato-sucrose-agar medium in a 6" petri dish and one of the fungi was spotted at the center of the dish. The dish was incubated in growth room for several days. The percent disease control was derived from the radii of spore growth. The screening tests in vitro condition are well-known to those skilled in the art.
# (§3) The following fungi were used for the screening.
# 7) Rhi.so.; Rhizoctonia solani
# Fusarium moniliforme = tested on: Fusarium moniliforme
# Description: as §1, §2, §3
# 8) Fu.mo.; Fusarium moniliforme
# Botry tris cinerea = details: read-out: % controlled, Bo ci.
# Description: as §1, §2, §3
# 10) Bo.ci.; Botry tris cinerea
# Phytophthora capsisi = details: Phytophthora, read-out: % controlled, Phy ca.
# Description: as §1, §2, §3
# 2) Phy. ca.; Phytophthora capsisi
# Rhizopus sp. = details: Rhizopus, read-out: % controlled, Rhi. sp.
# Description: as §1, §2, §3
# Alternaria mali = details: Alternaria mali, read-out: % controlled, Al.
# Description: as §1, §2, §3
# [1] = tested on: Botryosphaeria dothidea Macrophoma sp.; details: Botryosphaeria dothidea, read-out: % controlled, Bo.do (Ma.)
# Description: as §1, §2, §3
# 4) Bo.do(Ma); Botryosphaeria dothidea Macrophoma sp.
# Physalospora baccae = details: read-out: % controlled, Phy ba.
# Description: as §1, §2, §3
# 3) Phy. ba.; Physalospora baccae
# Pyricalaria oryzae = details: for inhibition of growth at 50 ppm: read-out: % controlled, Py. or., 50 ppm; for inhibition of growth at 100 ppm: read-out: % controlled, Py. or., 100 ppm
# Description: as §1, §2, §3
# 6) Py.or.; Pyricalaria oryzae
# Glomerella cingulata = details: Colletotrichum gloeosporioides, read-out: % controlled, Glo.
# Description: as §1, §2, §3
# 5) Glo.; Glomerella cingulata
Structure (SMILES),inhibition of growth at 50 ppm (Rhizoctonia solani),inhibition of growth at 100 ppm (Rhizoctonia solani),"% controlled, Fu. mo. (Fusarium moniliforme; 50 ppm)","% controlled, Fu. mo. (Fusarium moniliforme; 100 ppm)",inhibition of growth at 50 ppm (Botry tris cinerea),inhibition of growth at 100 ppm (Botry tris cinerea),inhibition of growth at 50 ppm (Phytophthora capsisi),inhibition of growth at 100 ppm (Phytophthora capsisi),inhibition of growth at 50 ppm (Rhizopus sp.),inhibition of growth at 100 ppm (Rhizopus sp.),inhibition of growth at 50 ppm (Alternaria mali),inhibition of growth at 100 ppm (Alternaria mali),inhibition of growth at 50 ppm [1],inhibition of growth at 100 ppm [1],inhibition of growth at 50 ppm (Physalospora baccae),inhibition of growth at 100 ppm (Physalospora baccae),inhibition of growth at 50 ppm (Pyricalaria oryzae),inhibition of growth at 100 ppm (Pyricalaria oryzae),inhibition of growth at 50 ppm (Glomerella cingulata),inhibition of growth at 100 ppm (Glomerella cingulata)
"C[Si](C)(C)C[Si](C)(Cn1cncn1)c1ccc(F)cc1 (stereo not drawn) [2-(4-fluorophenyl)-2,4,4-trimethyl-2,4-disila-1-(1H-1,2,4-triazol-1-yl)pentane]",90%,90%,62%,66%,81%,83%,20%,31%,49%,56%,78%,81%,69%,74%,56%,72%,100%,100%,,
"C[Si](C)(Cc1ccc(F)cc1)C[Si](C)(Cn1cncn1)c1ccc(F)cc1 (stereo not drawn) [4-(4-fluorobenzyl)-2-(4-fluorophenyl)-2,4-dimethyl-2,4-disila-1-(1H-1,2,4-triazol-1-yl)pentane]",36%,36%,34%,41%,0%,0%,3%,3%,21%,24%,38%,43%,40%,49%,26%,30%,50%,57%,0%,0%
"C[Si](C)(C[Si](C)(Cn1cncn1)c1ccc(F)cc1)c1ccc(F)cc1 (stereo not drawn) [2,4-bis(4-fluorophenyl)-2,4-dimethyl,2,4-disila-1-(1H-1,2,4-triazol-1-yl)pentane]",57%,60%,35%,38%,0%,10%,3%,6%,24%,26%,38%,44%,40%,43%,22%,22%,50%,54%,72%,73%
"COc1ccc([Si](C)(Cn2cncn2)C[Si](C)(C)c2ccc(Cl)cc2)cc1 (stereo not drawn) [4-(4-chlorophenyl)-2-(4-methoxyphenyl)-2,4-dimethyl-2,4-disila-1-(1H-1,2,4-triazol-1-yl)pentane]",100%,100%,28%,41%,40%,80%,43%,59%,32%,48%,30%,62%,34%,66%,50%,60%,100%,100%,56%,82%
"C=CC[Si](C[Si](C)(Cn1cncn1)c1ccc(OCC)cc1)(c1ccccc1)c1ccc(-c2ccccc2)cc1 (stereo not drawn) [6-(4-ethoxyphenyl)-6-methyl-4-phenyl-4-(4-phenylphenyl-4,6-disila-7-(1H-1,2,4-triazol-1-yl)-1-heptane]",100%,100%,80%,80%,80%,85%,60%,70%,75%,75%,100%,100%,100%,100%,100%,100%,75%,85%,80%,90%
"C=CC[Si](C[Si](C)(Cn1cncn1)c1ccc(F)cc1)(c1ccc(F)cc1)c1ccc(F)cc1 (stereo not drawn) [4,4,6-tris(4-fluorophenyl)-6-methyl-4,6-disila-7-(1H-1,2,4-triazole-1-yl)-1-heptane]",78%,78%,58%,63%,69%,66%,50%,60%,19%,43%,63%,72%,74%,78%,53%,74%,100%,100%,71%,77%
"COc1ccc([Si](Cn2cncn2)(C[Si](C)(C)c2ccc(Cl)cc2)c2ccc(Cl)cc2)cc1 (stereo not drawn) [2,4-bis(4-chlorophenyl)-2-(4-methoxyphenyl)-4-methyl-2,4-disila-1-(1H-1,2,4-triazol-1-yl)pentane]",90%,92%,42%,48%,40%,43%,45%,65%,46%,50%,74%,89%,75%,79%,76%,79%,100%,100%,76%,87%
"C=CC[Si](CC=C)(Cn1cncn1)C[Si](CC=C)(c1ccc(F)cc1)c1ccc(-c2ccccc2)cc1 (stereo not drawn) [6-(4-fluorophenyl)-6-(4-phenylphenyl)-4-(2-propenyl)-4,6-disila-4-(1H-1,2,4-triazol-1-ylmethyl)-1,8-nonadiene]",100%,100%,,,100%,100%,40%,50%,100%,100%,100%,100%,100%,100%,100%,100%,100%,100%,100%,100%
"C=CC[Si](Cn1cncn1)(C[Si](CC=C)(c1ccccc1)c1ccc(-c2ccccc2)cc1)c1ccc(F)cc1 (stereo not drawn) [4-(4-fluorophenyl)-6-phenyl-6-(4-phenylphenyl)-4,6-disila-4-(1H-1,2,4-triazol-1-ylmethyl)-1,8-nonadiene]",60%,90%,61%,65%,90%,90%,70%,72%,50%,58%,72%,78%,,,65%,69%,100%,100%,80%,86%
